From patent US11629155B2, “Small molecule antagonist compound TAC5 series having toll-like receptor 3/7/8/9 inhibitory function” (AJOU UNIVERSITY INDUSTRY-ACADEMIC COOPERATION FOUNDATION, priority 2018, dated 2023)

Target: T1, TLR8 (Homo sapiens, UniProt Q9NR97)
T1 construct: endogenous in cells; host or cells: THP1-derived macrophages (PMA-differentiated)
T1 sequence (Q9NR97 27-1041): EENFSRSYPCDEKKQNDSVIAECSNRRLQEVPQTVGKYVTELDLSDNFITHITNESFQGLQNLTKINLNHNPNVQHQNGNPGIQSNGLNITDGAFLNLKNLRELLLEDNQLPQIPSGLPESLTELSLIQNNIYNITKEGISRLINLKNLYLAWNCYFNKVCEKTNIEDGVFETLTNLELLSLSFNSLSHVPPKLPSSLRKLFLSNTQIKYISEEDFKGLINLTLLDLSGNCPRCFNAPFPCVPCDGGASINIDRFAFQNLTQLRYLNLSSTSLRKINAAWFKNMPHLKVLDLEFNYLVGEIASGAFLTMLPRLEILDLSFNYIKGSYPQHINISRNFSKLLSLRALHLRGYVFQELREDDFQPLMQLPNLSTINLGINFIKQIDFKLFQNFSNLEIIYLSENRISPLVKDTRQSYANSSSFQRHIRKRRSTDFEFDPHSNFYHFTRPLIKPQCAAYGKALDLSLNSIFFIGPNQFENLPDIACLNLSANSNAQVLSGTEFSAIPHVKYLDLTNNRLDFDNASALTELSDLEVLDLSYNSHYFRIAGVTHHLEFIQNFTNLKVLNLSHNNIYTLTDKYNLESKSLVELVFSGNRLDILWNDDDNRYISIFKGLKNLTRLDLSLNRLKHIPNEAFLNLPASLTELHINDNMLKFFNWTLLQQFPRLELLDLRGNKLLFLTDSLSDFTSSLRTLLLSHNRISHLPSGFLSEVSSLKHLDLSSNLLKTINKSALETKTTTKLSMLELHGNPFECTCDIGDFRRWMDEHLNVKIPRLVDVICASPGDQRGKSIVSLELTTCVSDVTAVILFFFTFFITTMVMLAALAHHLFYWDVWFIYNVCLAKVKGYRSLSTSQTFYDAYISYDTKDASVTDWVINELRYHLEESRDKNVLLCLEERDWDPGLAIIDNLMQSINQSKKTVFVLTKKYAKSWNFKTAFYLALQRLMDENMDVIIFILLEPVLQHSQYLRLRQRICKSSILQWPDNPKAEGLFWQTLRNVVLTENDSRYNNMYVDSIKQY
Assay: TL8, R848 or CL075-induced TNF-α or IL-6 secretion in THP1-derived macrophages
Format: cell-based
Conditions: TL8, R848 or CL075, dose-dependent manner, FIGS. 4E-4G

Compound: Nc1cccc(COc2cccnc2N)c1 [TAC5-a, 3-((3-aminobenzyl)oxy)pyridin-2-amine]
- TLR8-mediated TNF-α or IL-6 secretion: significantly inhibited
